The text below walks through data of ChEMBL document CHEMBL1201862, “PubChem BioAssay data set” (2004).

Test systems include T47D; KM-20L2; DMS-114; HOP-18; DLD-1; M19-MEL; DMS-273.
Experiment in all cases: inhibition of tumour cell growth, NCI panel, 48 h

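Growth conditions: 96-well plates. Treatment: test compound, 48 hours, 5 concentrations. Analysis: linear interpolation between bracketing concentrations; unreached endpoints set to highest concentration. GI50 = concentration required for 50% inhibition of growth.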 Activity calls are given as the source filed them. Rule as the data show it: active = GI50 up to about 1.1 µM and inactive = higher.

Regarding `O=C(/C=C/c1ccccc1)CCN1CCCCC1`, in the assay on T47D, the GI50 is 35.5 µM (inactive).

With `COc1cc2cc(C(=O)N3C[C@H](CCl)c4c3cc(N)c3ccccc43)[nH]c2c(OC)c1OC`, the GI50 with T47D was < 0.005 µM (active).

As to `CCCCCCCCCCCCCCCCCCNc1ccn(C2OC(CO)C(OP(=O)(O)OCC(O)COP(=O)(O)OCC3OC(n4cc(F)c(NCCCCCCCCCCCCCCCCCC)nc4=O)CC3O)C2O)c(=O)n1` (configuration not stated), the GI50 with T47D was > 50 µM (inactive).

As to `O=C1C(NCCc2cc(Br)c(O)c(Br)c2)=CC(=O)c2ncccc21`, the GI50 in the assay on T47D was 13.5 µM (inactive).

For `Cc1ccc2nc(N/N=C/c3sccc3C)cc(C)c2c1`, the GI50 in the assay on T47D is > 100 µM (inactive).

As for `O=c1ccc(=O)c2c1c1[nH]c3ccccc3c1c1c(=O)c3ccccc3c(=O)c21`, the GI50 in the assay with T47D is > 10 µM (inactive).

Turning to `C/C=C/[C@@]1(OC(=O)c2ccccc2)C[C@@H]2CCCC[C@@H]21`, the GI50 in the assay with T47D is 18.6 µM (inactive).

For `O=C(OCCN=c1c2ccccc2ccc2ccccc12)c1ccc([N+](=O)[O-])cc1`, the GI50 in the assay with T47D is > 100 µM (inactive).

On to `COc1cc(/C=C/c2cc(/C=C/c3ccc(O)c(OC)c3)oc(=O)c2)ccc1O`, for which the GI50 in the assay on T47D is 0.272 µM (active).

Consider `O=C1CC(CC(=O)c2ccc(Br)cc2)C(O)=C1C(=O)c1ccc(Br)cc1` (configuration not stated), for which the GI50 with T47D is 71.6 µM (inactive).

Turning to `O=C(NS(=O)(=O)c1ccccc1)C(Cc1ccccc1)C(Cc1ccccc1)C(=O)NS(=O)(=O)c1ccccc1` (configuration not stated), the GI50 in the assay with KM-20L2, in the assay with DMS-114, in the assay with HOP-18, with DLD-1, in the assay with M19-MEL and in the assay on DMS-273 was > 100 µM (inactive) each time.

With `CCn1c(CCCc2nc3c(=O)n(C)c(=O)n(C)c3[nH]2)nc2c1c(=O)n(C)c(=O)n2C`, the GI50 in the assay with T47D is > 100 µM (inactive).

Turning to `NC(=S)N/N=C1\C(=O)N(c2cccc([N+](=O)[O-])c2)C(=O)C1C(=O)Nc1cccc([N+](=O)[O-])c1` (configuration not stated), the GI50 in the assay with KM-20L2 is > 100 µM (inactive); with DMS-114, > 100 µM (inactive); with HOP-18, 65.3 µM (inactive); with DLD-1, > 100 µM (inactive); in the assay with M19-MEL, > 100 µM (inactive); in the assay with DMS-273, > 100 µM (inactive).

For `CC(=O)OCC1OC(n2c(C)c(/N=N/c3ccc(C)cc3)c(C)c(C#N)c2=S)C(OC(C)=O)C(OC(C)=O)C1OC(C)=O` (configuration not stated), the GI50 with T47D was > 100 µM (inactive).

Consider `COc1ccc(Nc2nnc(-c3nsc4ccccc34)s2)cc1`, for which the GI50 with T47D was 20.1 µM (inactive); in the assay on KM-20L2, > 100 µM (inactive); in the assay on DMS-114, 59.4 µM (inactive); with HOP-18 it was 0.0149 µM (active); with M19-MEL, > 100 µM (inactive); with DMS-273, 47.1 µM (inactive).

Take `O=S1(=O)c2ccccc2N(O)C2=NCCN21`: the GI50 in the assay with KM-20L2, in the assay on DMS-114, with DLD-1, with M19-MEL and with DMS-273 was > 100 µM (inactive) each time.

With `NNC(=O)CCC(NS(=O)(=O)c1ccc(Cl)cc1)C(=O)NN` (configuration not stated), the GI50 with T47D was > 100 µM (inactive).

As to `C/C(=N\Nc1cc(CN2CCCC2)c(-c2ccc(Cl)cc2)nn1)C(=O)O`, in the assay with T47D, the GI50 was > 100 µM (inactive).

On to `CCOC(=O)C1(c2ccccc2)CCCNCC1` (configuration not stated), for which the GI50 with KM-20L2 was > 100 µM (inactive); in the assay on HOP-18, > 100 µM (inactive); in the assay on DLD-1, 58.5 µM (inactive); in the assay with M19-MEL, > 100 µM (inactive); with DMS-273, 57.1 µM (inactive).

In the case of `CC1=N/C(=C\c2cccc([N+](=O)[O-])c2)C(=O)O1`, the GI50 in the assay on KM-20L2, with DMS-114, with HOP-18, with DLD-1 and in the assay with M19-MEL was > 100 µM (inactive) throughout.

On to `NS(=O)(=O)c1nnc(NSc2ccc([N+](=O)[O-])cc2)s1`, for which the GI50 in the assay with T47D is > 100 µM (inactive).

With `COc1c(-c2ccc(F)cc2)oc2cc(O)cc(O)c2c1=O`, the GI50 with T47D is 18.8 µM (inactive).

Turning to `CC(C)(C)OC(=O)NCCNCCNc1ccccc1`, in the assay with T47D, the GI50 was 85.5 µM (inactive).

In the case of `Cn1c2ccccc2c(=O)c2cccc(C(=O)NCC(=O)O)c21`, the GI50 in the assay with T47D is > 100 µM (inactive).

For `O=C(Oc1cncc(Cl)c1)c1cc2ccccc2sc1=O`, the GI50 with T47D was > 100 µM (inactive).

As for `CC12CCC3[C@@H](CC3(C)C)C(O)(CCC1=O)C2` (some centres not stated), the GI50 in the assay with T47D was > 100 µM (inactive).

`N#Cc1nnc2ccccc2c1N`: the GI50 in the assay on T47D is > 100 µM (inactive).

`CCCC(=O)OCC(COC(=O)CCC)OC(=O)CCC` [TRIBUTYRIN]: the GI50 in the assay on T47D is > 100 µM (inactive).

In the case of `Cc1ccccc1C(O)(c1nccn1C)c1nccn1C`, the GI50 with T47D is > 100 µM (inactive).

As to `O=C(O)c1c[nH]c2c(ccc3ncccc32)c1=O`, the GI50 in the assay with KM-20L2, in the assay on DMS-114, in the assay on HOP-18, in the assay on DLD-1, in the assay with M19-MEL and in the assay with DMS-273 was > 100 µM (inactive) throughout.

Turning to `O=C(O)CCC(NC(=O)c1ccc(Oc2nc3ccccc3nc2-c2ccccc2)cc1)C(=O)O` (configuration not stated), in the assay on T47D, the GI50 is > 100 µM (inactive).

With `Fc1ccc(C(OCCN2CC3CC2CN3CCCc2ccccc2)c2ccc(F)cc2)cc1` (configuration not stated), the GI50 in the assay on T47D is 2.07 µM (inactive).

`COC(=O)/C=C(/C=C1/C(C#N)=C(N)N(c2ccc(Cl)cc2)C1(C)/C(=C\C(=O)OC)C(=O)OC)C(=O)OC` (configuration not stated): in the assay on T47D, the GI50 was 18.3 µM (inactive).

Take `O=S(=O)(c1ccc(Br)cc1)N1CCN(S(=O)(=O)c2ccc(Br)cc2)CC1`: the GI50 with T47D was > 100 µM (inactive).

For `CC(C)N(C(=O)C12C3(C(=O)C(C)(C)C)C4C5(C#N)C3C1(C(=O)C(C)(C)C)C5C42C(=O)C(C)(C)C)C(C)C` (configuration not stated), the GI50 in the assay on T47D was > 100 µM (inactive).

`COc1cc(C2SC(=N)Nc3c2c(C)nn3C(=O)Cc2ccccc2)cc(OC)c1OC` (configuration not stated): the GI50 in the assay with T47D was > 100 µM (inactive).

Consider `COc1cc(/C=C2/CCCc3ccccc3C2=O)cc(OC)c1OC`, for which the GI50 with T47D was 5.92 µM (inactive).

For `C/C(Nc1ccc(F)cc1)=C1/CCOC1=O`, the GI50 in the assay on T47D was 63.2 µM (inactive).

With `NNc1ncnc2cccc(Cl)c12`, in the assay on T47D, the GI50 was > 100 µM (inactive).

As for `O=c1cc(N2CCCC2)[nH]c(=O)n1-c1ccc(Cl)cc1`, in the assay with T47D, the GI50 is > 100 µM (inactive).

On to `CCOC(=O)C1C(c2ccco2)C2(C#N)C(=N)OC1(C)C2(C#N)C#N` (configuration not stated), for which the GI50 in the assay on T47D is > 100 µM (inactive).

With `CC(C)(C)OC(=O)NNCC(O)COc1ccccc1` (configuration not stated), in the assay with T47D, the GI50 is > 100 µM (inactive).

With `COc1ccc(/N=N/C(=N/NC(=O)c2ccccc2)c2ccc(N(CCC#N)CCC#N)cc2C)cc1`, the GI50 with T47D is 53.7 µM (inactive).

With `O=C(O)c1cc(/N=C/c2ccccc2O)cc(C(=O)O)c1`, the GI50 in the assay on T47D is > 100 µM (inactive).

Turning to `COc1nc2ncc([C@@H](O)[C@H](O)CO)nc2c(=O)n1C`, the GI50 with T47D is > 100 µM (inactive).

In the case of `CC(C)=CCc1c2c(c3occ(-c4ccc(O)cc4)c(=O)c3c1O)CC(C(C)(C)O)O2` (configuration not stated) [SENEGALENSIN], in the assay on T47D, the GI50 was 10.3 µM (inactive).

In the case of `c1ccc(COC[C@H]2C3OCC([C@H](OCc4ccccc4)[C@H]3OCc3ccccc3)N2Cc2ccccc2)cc1` (some centres not stated), the GI50 with T47D is 13.6 µM (inactive).

Consider `CC[C@@]1(O)C(=O)OCc2c1cc1n(c2=O)Cc2c-1nc1ccc(O)cc1c2[Si](C)(C)C(C)(C)C` [AR-67], for which the GI50 in the assay on T47D was < 0.01 µM (active).

On to `C=C1C(=O)[C@@]23CC[C@@H]4[C@@]5(C)CCC[C@@]4(OC5=O)[C@@]2(C)CC[C@@H]1C3`, for which the GI50 in the assay on T47D is 4.89 µM (inactive).

Take `COc1cc2c(cc1C)NC(=O)/C2=C\c1ccncc1`: in the assay with T47D, the GI50 was 3.81 µM (inactive).
